{
  "source": "paper PMC12005787",
  "about": "“Synthetic Lethality of SHP2 and XIAP Suppresses Proliferation and Metastasis in KRAS‐mutant Nonsmall Cell Lung Cancer” (Advanced Science, 2025)",
  "key": {"NCI‐H2122 and A549 cells": {"test_system": "NCI‐H2122 and A549 cells", "experiment": "Cell scratch and cell migration assays", "type": "cell-based, human", "settings": "24 h", "method": "supplies are listed in Supplementary Table S5. The relevant reagents for protein extraction from Escherichia coli are listed in Supplementary Table S6. Inhibitory effects of embelin on KRAS-mutant and wild-type cells are listed in Supplementary Table S7.\n(§1) For the adherent cell viability assay, cells in the logarithmic growth phase were seeded in 96-well culture plates at a density of 5×103 well-1 and incubated overnight. Diluted compounds or DMSO were added, or specific treatments were incubated at 37 °C and 5% CO2 for 24 h or 48 h. Cell viability was determined using CCK-8 or CellLightTM Cell Viability Assay Kit, according to the manufacturer's protocol. The luminescence signals of the treated samples were normalized to those of the DMSO group.\n(§2) For spherical cell viability assays, cells in the logarithmic growth phase were inoculated ata density of 4×10^3 well-1 into 96-well spherical cell microplates and incubated at 37 °C, 5% CO2 for 24 h or 48 h. Cell viability was measured using the CellTiter-Glo® Luminescent Cell Viability 3D Cell Viability Assay Kit, according to the manufacturer’s protocol. […]\nFinally, the staining results were recorded using an inverted microscope. […]\nNCI-H2122 and A549 cells were seeded in six-well plates. […] Finally, the scratch was photographed using an inverted microscope and the wound healing status was recorded. […]"}, "[1]": {"test_system": "MIG‐6 and SPRY2 in NCI‐H2122 cells", "experiment": "MIG-6 and SPRY2 protein expression (western blotting)", "type": "cell-based, human", "settings": "24 h", "method": "Transwell, and the subsequent experiments were performed as described in Cell migration […]\nAfter given treatment, cells were lysed by ice bath with radio-immunoprecipitation assay (RIPA) buffer containing 1% phenylmethylsulphonyl fluoride (PMSF), and the supernatant was collected by centrifugation, and the protein concentration was subsequently determined using a BCA Protein Assay Kit. Depending on the molecular weight of the proteins, different concentrations of sodium dodecyl-sulfate polyacrylamide gel electrophoresis (SDS-PAGE) separator gels were prepared for protein electrophoresis. Equal amounts of proteins were sampled and subjected to SDS-PAGE gel electrophoresis; at the end of electrophoresis, the proteins were transferred to nitrocellulose (NC) membranes. The NC membrane was blocked with 5% skim milk and covered with a specific primary antibody overnight at 4 °C, in which the primary antibody was diluted at a ratio of 1:500–1:5000. The NC membrane was […]"}, "[2]": {"test_system": "KRAS‐mutant NSCLC cells in 3D culture", "experiment": "Cell proliferation in 3D cell culture (ATP chemiluminescence)", "type": "cell-based", "method": "supplies are listed in Supplementary Table S5. […]\nas §1\nas §2, with “protocol. The remaining steps were the same as those described above.” for “protocol.”\nFigure S7. Targeting SHP2 and XIAP produces a synthetic lethal effect. (A) Effects of NSC-87877 on cell viability of A549 and NCI-H2122 cells after 24 and 48 h were determined using the CCK-8. Bars, ± SEM. […]\ntailed Student’s t-test).(K) Effects of SHP099 and GDC-0152 separately and in combination with […] on the cell viability of human KRAS-WT and -mutant cells were assessed using a colony formation assay. […]"}},
  "data": [
    {"smiles": "CCCCCCCCCCCC1=C(O)C(=O)C=C(O)C1=O", "note": "[Embelin]", "values": [
      {"measurement": "effect on cell mobility / migration", "setting": "NCI‐H2122 and A549 cells", "value": "potently inhibit the migration capabilities"},
      {"measurement": "expression of MIG‐6 and SPRY2", "setting": "[1]", "value": "significantly promoted the expression"}
    ]},
    {"smiles": "CC1(N)CCN(c2cnc(-c3cccc(Cl)c3Cl)c(N)n2)CC1", "note": "[SHP099]", "values": [
      {"measurement": "effect on cell proliferation in 3D cell culture", "setting": "[2]", "value": "partially inhibited cell proliferation"},
      {"measurement": "effect on cell mobility / migration", "setting": "NCI‐H2122 and A549 cells", "value": "poor effect on cell mobility"}
    ]}
  ]
}
